Laboratory results reported in the supplement of paper PMC4862054.

Tests used:
CAL-85-1 [1] = conditions: 72 h
Description: (§1)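 Drug sensitivity and resistance testing (DSRT) of breast cancer cell lines in 384-well plates, 5 concentrations in 10-fold dilutions over a compound-specific 10,000-fold range. After 72 h, cytotoxicity was read by CellTox Green fluorescence and viability by CellTiter-Glo luminescence (multiplexed), normalised to DMSO and benzethonium chloride controls. EC50 is the inflection point of the fitted dose-response curve (bottom asymptote free, so it can be relative for partial curves) and is censored at the highest tested concentration. Rows with DSS 0 (no meaningful response) were excluded.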

BT-474 [2] = conditions: 72 h
Description: as §1

MFM-223 [3] = conditions: 72 h
Description: as §1

Hs578T [4] = conditions: 72 h
Description: as §1

HDQ-P1 [5] = conditions: 72 h
Description: as §1

BT-549 [6] = conditions: 72 h
Description: as §1

CAL-51 [7] = conditions: 72 h
Description: as §1

MDA-MB-231 [8] = conditions: 72 h
Description: as §1

MCF-10A [9] = conditions: 72 h
Description: as §1

CAL-85-1 [10] = conditions: 72 h; remark: listed apart in the source
Summary of the method: (§2)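 Two sequential readouts followed a 72 h incubation of breast cancer cell lines with compound at 5 concentrations in 10-fold steps over a compound-specific 10,000-fold range: CellTox Green fluorescence (485/520 nm) for cell death, then CellTiter-Glo luminescence, after 10 min at room temperature, for viability. Each plate was normalised to 0.1 % DMSO and a positive kill control. Dose-response curves were fitted for EC50, censored at the top concentration.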

BT-474 [11] = conditions: 72 h; remark: listed apart in the source
Summary of the method: as §2

CAL-148 = conditions: 72 h
Summary of the method: as §2

MFM-223 [12] = conditions: 72 h; remark: listed apart in the source
Summary of the method: as §2

SK-BR-3 [13] = conditions: 72 h
Summary of the method: as §2

HCC1599 [14] = conditions: 72 h
Summary of the method: as §2

Hs578T [15] = conditions: 72 h; remark: listed apart in the source
Summary of the method: as §2

HCC1143 [16] = conditions: 72 h
Summary of the method: as §2

HDQ-P1 [17] = conditions: 72 h; remark: listed apart in the source
Summary of the method: as §2

BT-549 [18] = conditions: 72 h; remark: listed apart in the source
Summary of the method: as §2

CAL-51 [19] = conditions: 72 h; remark: listed apart in the source
Summary of the method: as §2

MDA-MB-453 [20] = conditions: 72 h
Summary of the method: as §2

HCC1937 [21] = conditions: 72 h
Summary of the method: as §2

MDA-MB-231 [22] = conditions: 72 h; remark: listed apart in the source
Summary of the method: as §2

DU-4475 [23] = conditions: 72 h
Summary of the method: as §2

MDA-MB-436 [24] = conditions: 72 h
Summary of the method: as §2

MCF-10A [25] = conditions: 72 h; remark: listed apart in the source
Summary of the method: as §2

Hs578T [26] = assay: drug sensitivity score (DSS), CellTox Green (DSS (AUC-based score)); higher = stronger drug effect (viability inhibition or cytotoxicity); extreme values may be limits of the assay; conditions: incubation time: 72 h
Summary of the method: (§3)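 Plates with 384 wells held compound at 5 concentrations in 10-fold steps over a 10,000-fold range specific to each compound. Breast cancer cell lines were added in 20 µl suspension and incubated 72 h, then read for CellTox Green and CellTiter-Glo signals, with each plate normalised to 0.1 % DMSO and a positive kill control. The drug sensitivity score is based on the area under the fitted dose-response curve.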

HCC1937 [27] = assay: as above; conditions: incubation time: 72 h
Summary of the method: as §3

MDA-MB-231 [28] = assay: as above; conditions: incubation time: 72 h
Summary of the method: as §3

CAL-85-1 [29] = conditions: 72 h; remark: listed apart in the source
Summary of the method: (§4)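 Compound dissolved in 5 µl medium was placed in 384-well plates before 20 µl of breast cancer cell suspension was added, and the plates were incubated for 72 h. Cells then received 2.5 µl CellTiter-Blue for 2 h at 37 °C, and fluorescence was read at 560/590 nm. EC50 values come from percent-inhibition dose-response fits that were censored at the highest concentration, with plates normalised to vehicle and a positive kill control and rows with a zero drug sensitivity score excluded.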

HDQ-P1 [30] = conditions: 72 h; remark: listed apart in the source
Summary of the method: as §4

MDA-MB-453 [31] = conditions: 72 h; remark: listed apart in the source
Summary of the method: as §4

DU-4475 [32] = conditions: 72 h; remark: listed apart in the source
Summary of the method: as §4

BT-474 [33] = conditions: 72 h; remark: listed apart in the source
Summary of the method: as §4

MFM-223 [34] = conditions: 72 h; remark: listed apart in the source
Summary of the method: as §4

SK-BR-3 [35] = conditions: 72 h; remark: listed apart in the source
Summary of the method: as §4

HCC1599 [36] = conditions: 72 h; remark: listed apart in the source
Summary of the method: as §4

Hs578T [37] = conditions: 72 h; remark: listed apart in the source
Summary of the method: as §4

HCC1143 [38] = conditions: 72 h; remark: listed apart in the source
Summary of the method: as §4

MDA-MB-468 = conditions: 72 h
Summary of the method: as §4

BT-549 [39] = conditions: 72 h; remark: listed apart in the source
Summary of the method: as §4

CAL-120 = conditions: 72 h
Summary of the method: as §4

HCC1937 [40] = conditions: 72 h; remark: listed apart in the source
Summary of the method: as §4

MDA-MB-231 [41] = conditions: 72 h; remark: listed apart in the source
Summary of the method: as §4

MDA-MB-436 [42] = conditions: 72 h; remark: listed apart in the source
Summary of the method: as §4

EC50, CellTiter-Glo (BT-474 [11]): 0.183 µM
EC50, CellTiter-Glo (SK-BR-3 [13]): 0.218 µM
EC50, CellTiter-Glo (HCC1599 [14]): 0.417 µM
EC50, CellTiter-Glo (HCC1143 [16]): 0.359 µM
EC50, CellTiter-Glo (BT-549 [18]): 0.294 µM
EC50, CellTiter-Glo (MDA-MB-453 [20]): 0.548 µM
EC50, CellTiter-Glo (HCC1937 [21]): 0.357 µM
EC50, CellTiter-Glo (MDA-MB-231 [22]): 0.242 µM
EC50, CellTiter-Glo (MDA-MB-436 [24]): 0.143 µM
EC50, CellTiter-Blue viability (MDA-MB-453 [31]): 0.165 µM
EC50, CellTiter-Blue viability (BT-474 [33]): 0.278 µM
EC50, CellTiter-Blue viability (SK-BR-3 [35]): 0.0797 µM
EC50, CellTiter-Blue viability (HCC1599 [36]): 0.165 µM
EC50, CellTiter-Blue viability (HCC1143 [38]): 0.127 µM
EC50, CellTiter-Blue viability (MDA-MB-468): 0.278 µM
EC50, CellTiter-Blue viability (BT-549 [39]): 0.298 µM
EC50, CellTiter-Blue viability (HCC1937 [40]): 0.133 µM
EC50, CellTiter-Blue viability (MDA-MB-231 [41]): 0.19 µM
EC50, CellTiter-Blue viability (MDA-MB-436 [42]): 0.33 µM
Compound: CN1CC[C@H](c2c(O)cc(O)c3c(=O)cc(-c4ccccc4Cl)oc23)[C@H](O)C1 [Alvocidib]
EC50, CellTox Green (CAL-85-1 [1]): 0.473 µM
EC50, CellTox Green (BT-474 [2]): > 10 µM
EC50, CellTox Green (MFM-223 [3]): 0.558 µM
EC50, CellTox Green (Hs578T [4]): 1.79 µM
EC50, CellTox Green (HDQ-P1 [5]): 0.167 µM
EC50, CellTox Green (BT-549 [6]): 1.01 µM
EC50, CellTox Green (CAL-51 [7]): 0.806 µM
EC50, CellTox Green (MDA-MB-231 [8]): 0.135 µM
EC50, CellTox Green (MCF-10A [9]): 0.42 µM
EC50, CellTiter-Glo (CAL-85-1 [10]): 0.372 µM
EC50, CellTiter-Glo (CAL-148): 0.243 µM
EC50, CellTiter-Glo (MFM-223 [12]): 0.335 µM
EC50, CellTiter-Glo (Hs578T [15]): 0.376 µM
EC50, CellTiter-Glo (HDQ-P1 [17]): 0.183 µM
EC50, CellTiter-Glo (CAL-51 [19]): 0.167 µM
EC50, CellTiter-Glo (DU-4475 [23]): 0.282 µM
EC50, CellTiter-Glo (MCF-10A [25]): 0.368 µM
drug sensitivity score (Hs578T [26]): 8.33
drug sensitivity score (HCC1937 [27]): 0
drug sensitivity score (MDA-MB-231 [28]): 16.5
EC50, CellTiter-Blue viability (CAL-85-1 [29]): 0.153 µM
EC50, CellTiter-Blue viability (HDQ-P1 [30]): 0.163 µM
EC50, CellTiter-Blue viability (DU-4475 [32]): 0.141 µM
EC50, CellTiter-Blue viability (MFM-223 [34]): 0.174 µM
EC50, CellTiter-Blue viability (Hs578T [37]): 0.0936 µM
EC50, CellTiter-Blue viability (CAL-120): 0.0982 µM
